Test results: PMC7217877, “N-AS-triggered SPMs are direct regulators of microglia in a model of Alzheimer’s disease” (Nature Communications, 2020)
“And” between values parts separate entries of the source, which are not always exact repeats. Identical values can stand only once.

Experiments:
Assay type in all cases: in vivo, mouse
APP/PS1 mice [1] = test: western blot of synaptophysin, MAP2, synapsin1, PSD95 in cortex (Supplementary Fig 7a-d); parameters: synaptophysin (western blot, cortex) / MAP2 (western blot, cortex) / synapsin1 (western blot, cortex): scale not given here
Protocol: Samples were lysed in RIPA buffer (Cell signaling Technologies), then subjected to SDS-PAGE and transferred to a nitrocellulose membrane. Membranes were blocked with 5% milk, incubated with primary antibody and then incubated with the appropriate horseradish peroxidase-conjugated secondary antibody. […] We performed densitometric quantification using the ImageJ software (National Institutes of Health). Images have been cropped for presentation.
(§1) Transgenic mouse lines over-expressing the hAPP695swe (APP) and presenilin-1M146V (PS1) mutations were originated from GlaxoSmithKline (Harlow, UK)[32] and maintained as described previously. We purchased 5×FAD mice from Jackson Labs (Stock number. 34840-JAX). Because APP/PS1 and 5xFAD mice show sex differences in disease progression, we used only male mice. To examine possible therapeutic effect of N-AS and aspirin in APP/PS1 mice, the N-AS (30 mg kg^−1, Sigma-Aldrich, 01912) was injected daily s.c. for 8 weeks to 7-months-old APP/PS1 mice until the age of 9 months, and aspirin (2 mg kg^−1, Sigma-Aldrich, A5376)[33] was administrated orally to 7-months-old APP/PS1 mice for 8 weeks. Also, to confirm possible therapeutic efficacy of N-AS in 5×FAD, the N-AS (30 mg kg^−1, Sigma-Aldrich, 01912) was injected daily s.c. for 4 weeks to 3-months-old 5×FAD mice until the age of 4 months. Block randomization method was used to allocate the animals to experimental groups. To eliminate the bias, we were blinded in experimental progress such as data collection and data analysis. Mice were housed at temperature of 22 °C and a 12 h day/12 h night cycle with free access to tap water and food pellets. All protocols were approved by the Kyungpook National University Institutional Animal Care and Use Committee.

APP/PS1 mice [2] = test: cerebral amyloid angiopathy (CAA) quantification (Fig 6f); settings: Cortex; APP/PS1 + N-AS; individual values
Protocol: Thioflavin S (Sigma-Aldrich) staining was carried out according to previously described procedures. We used 6E10 (mouse, 1:100, Signet, SIG39300), anti-20G10 (mouse, 1:1000, provided by D. R. Howlett, GlaxoSmithKline, Harlow, Essex, UK) for Aβ42, anti-G30 (rabbit, 1:1000, provided by D. R. Howlett) for Aβ40, SMA (mouse, 1:400, Sigma-Aldrich, A2547), AT8 (mouse, 1:500, Thermo Fisher Scientific, MN1020), Caspase-3 (mouse, 1:200, Novus Biologicals, NB100-56708), ac-S565 (rabbit, 1:100), COX2 (mouse, 1:250, Thermo Fisher Scientific, 35-8200), Iba1 (rabbit, 1:500, Wako, 019-19941 and goat, Abcam, ab5076), NeuN (mouse, 1:500, Millipore, MAB177), GFAP (rabbit, 1:500, Dako, N1506 and chicken, 1:500, Abcam, ab4674), and Lamp1 (mouse, 1:200, Abcam, ab24170). The sections were analyzed with a laser-scanning confocal microscope (FV3000; Olympus) or with a BX51 microscope (Olympus). MetaMorph software (Molecular Devices) was used to quantification. Three-dimensional reconstruction of microglia was recorded and analyzed using IMARIS software (Bitplane)[11]. For the analysis of age-dependent microglial COX2^+ CX3CR1^+ cells in WT and APP/PS1 mice, COX2 (rabbit, 1:100, Abcam, ab15191) and CX3CR1 (mouse, 1:100, BioLegend, 149008) antibody were used and the images were acquired on Alexa 488 and APC Channel with performed using Operetta CLS and Analysis Software 4.5 (Perkin-Elmer). […]

APP/PS1 mice [3] = test: ELISA of Aβ40 and Aβ42 in cortex (Fig 6e); parameters: Ab 40 (ELISA, Figure 6e) / Ab 42 (ELISA, Figure 6e): unit not given beside the values
Protocol: For measurement of Aβ40 and Aβ42, we used commercially available ELISA kits (Invitrogen, KHB3481, and KHB3441). Cortex of mice was homogenized in buffer containing […] guanidine. ELISA was then performed for Aβ40 and Aβ42 according to the manufacturer’s instructions.
as §1

APP/PS1 mice [4] = test: mRNA levels of inflammatory markers in cortex (real-time PCR, Fig 6j); parameters: iNOS mRNA level (Figure 6j) / IL1b mRNA level (Figure 6j) / Arg1 mRNA level (Figure 6j) / IL4 mRNA level (Figure 6j) / TGFb mRNA level (Figure 6j) / TNF-a mRNA level (Figure 6j) / IL6 mRNA level (Figure 6j): scale not given here
Protocol: as §1
For total RNA extraction from the microglia derived from WT, APP/PS1, APP/PS1 mice treated with N-AS, and APP/PS1 mice treated with aspirin, the cells were isolated from the cortex of WT, APP/PS1, APP/PS1 mice treated with N-AS, or aspirin using the methods described above. Total RNA was isolated using the kit components according to the manufacturer’s instructions (RNeasy mini kit, 74134, QIAGEN). cDNA was synthesized from 5 μg of total RNA using a commercially available kit (Takara). Quantitative real-time PCR was performed using a Corbett research RG-6000 real-time PCR instrument. Primers are described in Supplementary Table 5.

[5] = APP/PS1 + N-AS, individual animals

With `CCCCCCCCCCCCC/C=C/[C@@H](O)[C@H](CO)NC(C)=O` [N-AS, N-((2S,3R,E)-1,3-Dihydroxyoctadec-4-en-2-yl)acetamide] the “synaptophysin (western blot, cortex)” value (APP/PS1 mice [1]; APP/PS1 + N-AS, sFig 7a (sheet untitled)) was 2.567 and 3.1595 and 2.9069 and 1.677 and 2.527 and 2.054, the “MAP2 (western blot, cortex)” value (APP/PS1 mice [1]; APP/PS1 + N-AS, sFig 7b (sheet untitled)) was 0.7541 and 0.8231 and 0.7626 and 0.741 and 0.7343 and 0.8145 and the “synapsin1 (western blot, cortex)” value (APP/PS1 mice [1]; APP/PS1 + N-AS, sFig 7c (sheet untitled)) was 0.7506 and 0.7227 and 0.685 and 0.6922 and 0.6413. The “PSD95 (western blot, cortex)” value (APP/PS1 mice [1]; APP/PS1 + N-AS, sFig 7d (sheet untitled)) was 0.7284 and 0.7208 and 0.6479 and 0.6548 and 0.6748 and 0.6067, the “expression levels of synaptophysin, MAP2, synapsin1, PSD95” value (APP/PS1 mice [1]; N-AS vs APP/PS1) was “restored” and the “amyloid angiopathy (CAA) quantification” value (APP/PS1 mice [2]) was 0.11 and 0.15 and 0.12 and 0.1 and 0.17 and 0.13. The “Ab 40 (ELISA, Figure 6e)” value (APP/PS1 mice [3]; [5]) was 1042.75 and 892.25 and 1044 and 676.5 and 692.5 and 668.75 and 689.75 and 1124, the “Ab 42 (ELISA, Figure 6e)” value (APP/PS1 mice [3]; [5]) was 921.303 and 908.818 and 878.061 and 828.152 and 906.333 and 894.303 and 859.97 and 905.879 and the “Aβ levels by ELISA of Aβ40 and Aβ42” value (APP/PS1 mice [3]; N-AS vs vehicle APP/PS1) was “significantly lower Aβ levels”. The “Arg1 mRNA level (Figure 6j)” value (APP/PS1 mice [4]; [5]) was 1.307 and 2.185 and 1.935 and 1.275 and 1.335 and 1.465, the “IL1b mRNA level (Figure 6j)” value (APP/PS1 mice [4]; [5]) was 1.25 and 0.7 and 1.3 and 0.95 and 0.88 and 1.1 and the “IL4 mRNA level (Figure 6j)” value (APP/PS1 mice [4]; [5]) was 0.765 and 1.235 and 0.984 and 0.825. For the same compound, the “IL6 mRNA level (Figure 6j)” value (APP/PS1 mice [4]; [5]) was 0.7652 and 0.81 and 0.821 and 0.83 and 0.957, the “TGFb mRNA level (Figure 6j)” value (APP/PS1 mice [4]; [5]) was 1.79 and 2.4 and 2.595 and 2.81 and the “TNF-a mRNA level (Figure 6j)” value (APP/PS1 mice [4]; [5]) was 0.865 and 1.34 and 1.37 and 1.005 and 1.085. The “iNOS mRNA level (Figure 6j)” value (APP/PS1 mice [4]; [5]) was 0.92 and 1.42 and 1.85 and 1.2 and 0.78 and 0.55 and the “inflammatory response (mRNA of inflammatory markers)” value (APP/PS1 mice [4]; N-AS vs vehicle APP/PS1) was “improved”.
